Results: patent US9586962B2, “Disubstituted octahydropyrrolo [3,4-C] pyrroles as orexin receptor modulators” (Janssen Pharmaceutica NV, priority 2011, dated 2017)

Target: human orexin 2 receptor (Homo sapiens (Human), UniProt O43614)
Assay: Human orexin 2 receptor Ca2+ mobilization assay (FLIPR, PFSK cells, orexin B 100 nM)
Type: cell-based
Conditions: modified Cheng-Prusoff correction, read-out: OR 2 Kb
Protocol: Human Orexin 2 Receptor Ca^2+ Mobilization Assay
Cells were seeded on to 96-well Packard viewplates at a density of 50,000 cells/well and incubated overnight at 37° C., 5% CO2. The cells were dye-loaded with 4 μM Ca^2+ dye Fluo-3AM in serum-free DMEM/F-12 with 2.5 mM probenecid and incubated at 37° C., 5% CO2 for one hour. Cells were pre-incubated with compounds (diluted in DMEM/F-12) for 30 minutes before agonist (orexin B, 100 nM) stimulation. Ligand-induced Ca^2+ release was measured using a Fluorometric Imaging Plate Reader (FLIPR, Molecular Devices, Sunnyvale, Calif.). Functional responses were measured as peak fluorescence intensity minus basal. The concentration of agonist that produced a half-maximal response is represented by the EC50 value. Antagonistic potency values were converted to apparent pKB values using a modified Cheng-Prusoff correction. Apparent pKB=−log IC50/1+[conc agonist/EC50]. Data are expressed as mean±S.E.M, the designation of NT means not tested.

human orexin 2 receptor, sequence (O43614 whole entry): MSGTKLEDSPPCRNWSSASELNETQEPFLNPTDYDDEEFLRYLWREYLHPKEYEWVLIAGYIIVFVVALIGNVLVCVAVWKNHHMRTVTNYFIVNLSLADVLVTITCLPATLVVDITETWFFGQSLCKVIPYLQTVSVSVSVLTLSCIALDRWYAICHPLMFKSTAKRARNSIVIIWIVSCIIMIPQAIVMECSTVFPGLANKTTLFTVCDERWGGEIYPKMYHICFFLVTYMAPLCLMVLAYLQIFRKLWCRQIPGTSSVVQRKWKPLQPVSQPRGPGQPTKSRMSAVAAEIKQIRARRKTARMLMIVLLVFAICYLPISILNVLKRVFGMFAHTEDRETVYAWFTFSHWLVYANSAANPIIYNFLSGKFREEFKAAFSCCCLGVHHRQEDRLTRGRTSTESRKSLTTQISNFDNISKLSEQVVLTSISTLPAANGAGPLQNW

SMILES | Kb
Cc1ccc2ccccc2c1C(=O)N1CC2CN(c3nccc(-c4ccccc4)n3)CC2C1 (centres unmarked) [Example 25, 2-[(2-Methylnaphthalen-1-yl)carbonyl]-5-(4-phenylpyrimidin-2-yl)octahydropyrrolo[3,4-c]pyrrole] | 99 nM
Cc1ccc(-c2ncccn2)c(C(=O)N2CC3CN(c4cc(C(F)(F)F)nc(N(C)C)n4)CC3C2)c1 (centres unmarked) [Example 108, N,N-Dimethyl-4-{5-[(5-methyl-2-pyrimidin-2-ylphenyl)carbonyl]hexahydropyrrolo[3,4-c]pyrrol-2(1H)-yl}-6-(trifluoromethyl)pyrimidin-2-amine] | 25 nM
Cc1cc(N2CC3CN(C(=O)c4ccc(F)cc4-n4nccn4)CC3C2)nc(C(F)(F)F)n1 (centres unmarked) [Example 99, 2-{[4-Fluoro-2-(2H-1,2,3-triazol-2-yl)phenyl]carbonyl}-5-[6-methyl-2-(trifluoromethyl)pyrimidin-4-yl]octahydropyrrolo[3,4-c]pyrrole] | 16 nM
O=C(c1ccccc1-c1cccs1)N1CC2CN(c3cnc4ccccc4n3)CC2C1 (centres unmarked) [Example 19, 2-{5-[(2-Thiophen-2-ylphenyl)carbonyl]hexahydropyrrolo[3,4-c]pyrrol-2(1H)-yl}quinoxaline] | 31 nM
O=C(c1ccccc1-n1nccn1)N1CC2CN(c3nccc(C(F)(F)F)n3)CC2C1 (centres unmarked) [Example 153, 2-{[2-(2H-1,2,3-Triazol-2-yl)phenyl]carbonyl}-5-[4-(trifluoromethyl)pyrimidin-2-yl]octahydropyrrolo[3,4-c]pyrrole] | 40 nM
Cc1ccnc(N2CC3CN(C(=O)c4ccccc4-c4cccs4)CC3C2)n1 (centres unmarked) [Example 32, 2-(4-Methylpyrimidin-2-yl)-5-[(2-thiophen-2-ylphenyl)carbonyl]octahydro-pyrrolo[3,4-c]pyrrole] | 32 nM
O=C(c1ccccc1-n1nccn1)N1CC2CN(c3nc4ccccc4o3)CC2C1 (centres unmarked) [Example 144, 2-[5-{[2-(2H-1,2,3-Triazol-2-yl)phenyl]carbonyl}hexahydropyrrolo[3,4-c]pyrrol-2(1H)-yl]-1,3-benzoxazole] | 63 nM
Cc1cc(C)nc(N2CC3CN(C(=O)c4ccccc4-c4ccccc4)CC3C2)n1 (centres unmarked) [Example 44, 2-(Biphenyl-2-ylcarbonyl)-5-(4,6-dimethylpyrimidin-2-yl)octahydropyrrolo[3,4-c]pyrrole] | 63 nM
O=C(c1ccccc1-n1nccn1)N1CC2CN(c3nccc(-c4ccccc4)n3)CC2C1 (centres unmarked) [Example 131, 2-(4-Phenylpyrimidin-2-yl)-5-{[2-(2H-1,2,3-triazol-2-yl)phenyl]carbonyl}octahydro pyrrolo[3,4-c]pyrrole] | 79 nM
O=C(c1ccccc1-c1cccs1)N1CC2CN(c3nccc(-c4ccccc4)n3)CC2C1 (centres unmarked) [Example 22, 2-(4-Phenylpyrimidin-2-yl)-5-[(2-thiophen-2-ylphenyl)carbonyl]octahydro-pyrrolo[3,4-c]pyrrole] | 158 nM
Cc1ccc(-c2ncccn2)c(C(=O)N2CC3CN(c4nc(C)cnc4C)CC3C2)c1 (centres unmarked) [Example 103, 2-(3,6-Dimethylpyrazin-2-yl)-5-[(5-methyl-2-pyrimidin-2-ylphenyl)carbonyl]octahydropyrrolo[3,4-c]pyrrole] | 32 nM
CN(C)c1nc(N2CC3CN(C(=O)c4c(F)cccc4-n4nccn4)CC3C2)cc(C(F)(F)F)n1 (centres unmarked) [Example 106, 4-[5-{[2-Fluoro-6-(2H-1,2,3-triazol-2-yl)phenyl]carbonyl}hexahydropyrrolo[3,4-c]pyrrol-2(1H)-yl]-N,N-dimethyl-6-(trifluoromethyl)pyrimidin-2-amine] | 20 nM
Cc1cc(C)nc(N2CC3CN(C(=O)c4ccccc4-c4cccs4)CC3C2)n1 (centres unmarked) [Example 43, 2-(4,6-Dimethylpyrimidin-2-yl)-5-[(2-thiophen-2-ylphenyl)carbonyl]octahydro-pyrrolo[3,4-c]pyrrole] | 10 nM
COc1cc(OC)nc(N2CC3CN(C(=O)c4ccccc4-c4cccs4)CC3C2)n1 (centres unmarked) [Example 138, 2-(4,6-Dimethoxypyrimidin-2-yl)-5-[(2-thiophen-2-ylphenyl)carbonyl]octahydro pyrrolo[3,4-c]pyrrole] | 40 nM
O=C(c1ccccc1-c1cccs1)N1CC2CN(c3nccc(-c4cn[nH]c4)n3)CC2C1 (centres unmarked) [Example 62, 2-[4-(1H-Pyrazol-4-yl)pyrimidin-2-yl]-5-[(2-thiophen-2-ylphenyl)carbonyl]octahydro-pyrrolo[3,4-c]pyrrole] | 40 nM

Further lines, results first:

Kb | SMILES
20 nM | COc1cc(OC)nc(N2CC3CN(C(=O)c4ccc(F)cc4-n4nccn4)CC3C2)n1 (centres unmarked) [Example 160, 2-(4,6-Dimethoxypyrimidin-2-yl)-5-{[4-fluoro-2-(2H-1,2,3-triazol-2-yl)phenyl]carbonyl}octahydropyrrolo[3,4-c]pyrrole]
3 nM | Cc1cc(C)nc(N2CC3CN(C(=O)c4cccc(F)c4-c4ccccn4)CC3C2)n1 (centres unmarked) [Example 472, (5-(4,6-dimethylpyrimidin-2-yl)hexahydropyrrolo[3,4-c]pyrrol-2(1H)-yl)(3-fluoro-2-(pyridin-2-yl)phenyl)methanone]
15 nM | COc1ccc(-n2nccn2)c(C(=O)N2CC3CN(c4cnc5cc(F)c(F)cc5n4)CC3C2)c1 (centres unmarked) [Example 245, (5-(6,7-Difluoroquinoxalin-2-yl)hexahydropyrrolo[3,4-c]pyrrol-2(1H)-yl)(5-methoxy-2-(2H-1,2,3-triazol-2-yl)phenyl)methanone]
5 nM | Cc1ccnc(-c2c(F)cccc2C(=O)N2CC3CN(c4nc(C)cc(C)n4)CC3C2)c1 (centres unmarked) [Example 373, (5-(4,6-Dimethylpyrimidin-2-yl)hexahydropyrrolo[3,4-c]pyrrol-2(1H)-yl)(3-fluoro-2-(4-methylpyridin-2-yl)phenyl)methanone]
10 nM | Cc1nc(N2CC3CN(C(=O)c4ccccc4-c4ncn(C)n4)CC3C2)ncc1Cl (centres unmarked) [Example 321, 2-(5-Chloro-4-methylpyrimidin-2-yl)-5-{[2-(1-methyl-1H-1,2,4-triazol-3-yl)phenyl]carbonyl}octahydropyrrolo[3,4-c]pyrrole]
2 nM | Cc1cc(C)nc(N2CC3CN(C(=O)c4cccc(F)c4-c4ccn[nH]4)CC3C2)n1 (centres unmarked) [Example 284, 2-(4,6-Dimethylpyrimidin-2-yl)-5-{[3-fluoro-2-(1H-pyrazol-5-yl)phenyl]carbonyl}octahydropyrrolo[3,4-c]pyrrole]
5 nM | Cc1cc(C)nc(N2CC3CN(C(=O)c4ccccc4-c4ncn(C)n4)CC3C2)n1 (centres unmarked) [Example 308, 2-(4,6-Dimethylpyrimidin-2-yl)-5-{[2-(1-methyl-1H-1,2,4-triazol-3-yl)phenyl]carbonyl}octahydropyrrolo[3,4-c]pyrrole]
14 nM | COc1ccc(C(=O)N2CC3CN(c4cnc5cc(F)c(F)cc5n4)CC3C2)c(-n2nccn2)c1 (centres unmarked) [Example 389, (5-(6,7-Difluoroquinoxalin-2-yl)hexahydropyrrolo[3,4-c]pyrrol-2(1H)-yl)(4-methoxy-2-(2H-1,2,3-triazol-2-yl)phenyl)methanone]
16 nM | Cc1cc(C)nc(N2CC3CN(C(=O)c4ccccc4OC(F)(F)F)CC3C2)n1 (centres unmarked) [Example 274, (5-(4,6-Dimethylpyrimidin-2-yl)hexahydropyrrolo[3,4-c]pyrrol-2(1H)-yl)(2-(trifluoromethoxy)phenyl)methanone]
4 nM | Cc1cc(C)nc(N2CC3CN(C(=O)c4cccc5c4-c4ccccc4C5)CC3C2)n1 (centres unmarked) [Example 326, 2-(4,6-Dimethylpyrimidin-2-yl)-5-(9H-fluoren-4-ylcarbonyl)octahydropyrrolo[3,4-c]pyrrole]
50 nM | Cc1cnc(C)c(N2CC3CN(C(=O)c4ccccc4-c4ncn[nH]4)CC3C2)n1 (centres unmarked) [Example 213, [5-(3,6-Dimethyl-pyrazin-2-yl)-hexahydro-pyrrolo[3,4-c]pyrrol-2-yl]-[2-(2H-[1,2,4]triazol-3-yl)-phenyl]-methanone]
12 nM | Cc1ccc(-c2c(F)cccc2C(=O)N2CC3CN(c4nc(C)cc(C)n4)CC3C2)nc1 (centres unmarked) [Example 374, (5-(4,6-Dimethylpyrimidin-2-yl)hexahydropyrrolo[3,4-c]pyrrol-2(1H)-yl)(3-fluoro-2-(5-methylpyridin-2-yl)phenyl)methanone]
15 nM | Cc1noc(-c2ccccc2C(=O)N2CC3CN(c4ncc(F)c(C)n4)CC3C2)n1 (centres unmarked) [Example 310, 2-(5-Fluoro-4-methylpyrimidin-2-yl)-5-{[2-(3-methyl-1,2,4-oxadiazol-5-yl)phenyl]carbonyl}octahydropyrrolo[3,4-c]pyrrole]
126 nM | O=C(c1ccccc1-c1ccccc1)N1CC2CN(c3cnc4ccccc4n3)CC2C1 (centres unmarked) [Example 168, 2-[5-(Biphenyl-2-ylcarbonyl)hexahydropyrrolo[3,4-c]pyrrol-2(1H)-yl]quinoxaline]
200 nM | O=C(c1ccccc1-c1ccccc1)N1CC2CN(c3nccc(-c4ccccc4)n3)CC2C1 (centres unmarked) [Example 164, 2-(Biphenyl-2-ylcarbonyl)-5-(4-phenylpyrimidin-2-yl)octahydropyrrolo[3,4-c]pyrrole]
3 nM | Cc1noc(-c2ccccc2C(=O)N2CC3CN(c4nc(C)c(Cl)c(C)n4)CC3C2)n1 (centres unmarked) [Example 318, 2-(5-Chloro-4,6-dimethylpyrimidin-2-yl)-5-{[2-(3-methyl-1,2,4-oxadiazol-5-yl)phenyl]carbonyl}octahydropyrrolo[3,4-c]pyrrole]
40 nM | Cc1cc(C)nc(N2CC3CN(C(=O)c4cccc5cccc(-n6nccn6)c45)CC3C2)n1 (centres unmarked) [Example 328, [5-(4,6-Dimethyl-pyrimidin-2-yl)-hexahydro-pyrrolo[3,4-c]pyrrol-2-yl]-(8-[1,2,3]triazol-2-yl-naphthalen-1-yl)-methanone]
